The record followed here is patent publication US10227361B2, “Fused imidazobenzothiazole compounds” (TORRENT PHARMACEUTICALS LIMITED, priority 2014, dated 2019).

T1 sequence (Q16539 whole entry): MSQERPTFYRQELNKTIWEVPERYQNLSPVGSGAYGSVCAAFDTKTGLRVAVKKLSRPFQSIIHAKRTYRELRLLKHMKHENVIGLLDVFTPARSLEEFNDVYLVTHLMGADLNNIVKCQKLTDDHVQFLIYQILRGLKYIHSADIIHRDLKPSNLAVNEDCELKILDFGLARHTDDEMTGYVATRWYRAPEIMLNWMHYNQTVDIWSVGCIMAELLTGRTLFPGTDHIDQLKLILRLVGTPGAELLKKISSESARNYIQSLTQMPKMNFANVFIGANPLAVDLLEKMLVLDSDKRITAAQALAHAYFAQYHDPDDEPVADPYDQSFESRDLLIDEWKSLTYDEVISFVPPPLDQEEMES

The first assay concerns the target T1, purified recombinant human p38 alpha MAPK (Homo sapiens, UniProt Q16539).
T1 construct: purchased Millipore, USA
Kind of assay: Inhibition of p38 alpha MAPK activity: TR-FRET kinase assay. Type of assay: biochemical. The conditions noted are these: Concentration 1 μM. Here is the method:
Inhibition of p38 Alpha MAPK Activity: Time-Resolved Fluorescence Resonance Energy Transfer Kinase Standard Assay (TR-FRET Assay)
Compounds of present invention at various concentrations were premixed with DMSO. The experiment was initiated by mixing 0.5% 1.0% DMSO as vehicle/compounds with purified recombinant human p38 alpha MAPK (Millipore, USA) in the wells and 15 min incubation at RT. Thereafter, 30 nM of Biotinylated GST-ATF2 (Activation Transcription Factor2) and 100 μM of ATP were added in to the wells containing reaction mixture, followed by reincubation for 60 minutes at RT. Reaction was terminated by addition of 10 mM of EDTA and detection reagent containing anti-phosphothreonine ATF2 antibody (Perkin Elmer, USA) labelled with europium chelate and APC (Allophycocyanin) labeled streptavidin, into the reaction mixture which was further incubated for 60 minutes at room temperature. The degree of phosphorylation of the substrate (GST-ATF2) was measured using Envision multimode reader (Perkin Elmer). Percentage inhibition of p38 kinase activity was calculated by determining ratio of specific europium 665 nm energy transfer signal to reference 615 nm signal.
In the case of “1-(3-tert-butyl-1-phenyl-1H-pyrazol-5-yl)-3-(2-{[3-(hydroxymethyl)-2-methylimidazo[2,1-b][1,3]benzothiazol-7-yl]oxy}benzyl)urea [Compound 38]”, the “P38α Inhibition” value was “+++++ (+++++ = Inhibition ≥80% ≤ 100%)”.
On the same count and under the same terms, with “7-{[4-({[3-tert-butyl-1-(4-hydroxyphenyl)-1H-pyrazol-5-yl]carbamoyl}amino)phenyl]sulfanyl}-N-(2-hydroxyethyl)imidazo[2,1-b][1,3]benzothiazole-3-carboxamide [Compound 11]” the entry was “++ (++ = Inhibition ≥20% ≤ 40%)”.

Staying with this assay, now noted: Concentration 1 μM; read-out: P38α Inhibition.
With `CC(C)(C)c1cc(NC(=O)Nc2ccc(Oc3ccc4c(c3)sc3nc(C(=O)NCCN5CCOCC5)cn34)cc2)n(-c2ccc(O)c(Cl)c2)n1` [Compound 1, 7-[4-({[3-tert-butyl-1-(3-chloro-4-hydroxyphenyl)-1H-pyrazol-5-yl]carbamoyl}amino)phenoxy]-N-[2-(morpholin-4-yl)ethyl]imidazo[2,1-b][1,3]benzothiazole-2-carboxamide], the inhibition at 1 µM was 40 to 60%.
In the case of `Cc1ccc(-n2nc(C(C)(C)C)cc2NC(=O)Nc2ccc(Oc3ccc4c(c3)sc3nc(C(=O)NCCN5CCOCC5)cn34)cc2)cc1` [Compound 2, 7-[4-({[3-tert-butyl-1-(4-methylphenyl)-1H-pyrazol-5-yl]carbamoyl}amino)phenoxy]-N-[2-(morpholin-4-yl)ethyl]imidazo[2,1-b][1,3]benzothiazole-2-carboxamide], the inhibition at 1 µM is 60 to 80%.
Consider `Cc1ccc(-n2nc(C(C)(C)C)cc2NC(=O)Nc2ccc(Oc3ccc4c(c3)sc3nc(C(=O)NC(CO)c5ccccc5)cn34)cc2)cc1` (centres unmarked) [Compound 3, 7-[4-({[3-tert-butyl-1-(4-methylphenyl)-1H-pyrazol-5-yl]carbamoyl}amino)phenoxy]-N-(2-hydroxy-1-phenylethyl)imidazo[2,1-b][1,3]benzothiazole-2-carboxamide], for which the inhibition at 1 µM lay in the range of 40 to 60%.
With `Cc1ccc(-n2nc(C(C)(C)C)cc2NC(=O)Nc2ccc(Oc3ccc4c(c3)sc3nc(C(=O)NCCO)cn34)cc2)cc1` [Compound 4, 7-[4-({[3-tert-butyl-1-(4-methylphenyl)-1H-pyrazol-5-yl]carbamoyl}amino)phenoxy]-N-(2-hydroxyethyl)imidazo[2,1-b][1,3]benzothiazole-2-carboxamide], the inhibition at 1 µM is 80 to 100%.
On to `CCOC(=O)c1cnc2sc3cc(Oc4ccc(NC(=O)Nc5cc(C(C)(C)C)nn5-c5ccc(OC)c(Cl)c5)cc4)ccc3n12` [Compound 5, ethyl 7-[4-({[3-tert-butyl-1-(3-chloro-4-methoxyphenyl)-1H-pyrazol-5-yl]carbamoyl}amino)phenoxy]imidazo[2,1-b][1,3]benzothiazole-3-carboxylate], for which the inhibition at 1 µM lay in the range of 20 to 40%.
Consider `COc1ccc(-n2nc(C(C)(C)C)cc2NC(=O)Nc2ccc(Oc3ccc4c(c3)sc3ncc(C(=O)O)n34)cc2)cc1Cl` [Compound 6, 7-[4-({[3-tert-butyl-1-(3-chloro-4-methoxyphenyl)-1H-pyrazol-5-yl]carbamoyl}amino)phenoxy]imidazo[2,1-b][1,3]benzothiazole-3-carboxylic acid], for which the inhibition at 1 µM was in the range of 80 to 100%.
Turning to `COc1ccc(-n2nc(C(C)(C)C)cc2NC(=O)Nc2ccc(Oc3ccc4c(c3)sc3ncc(C(=O)NCCO)n34)cc2)cc1Cl` [Compound 7, 7-[4-({[3-tert-butyl-1-(3-chloro-4-methoxyphenyl)-1H-pyrazol-5-yl]carbamoyl}amino)phenoxy]-N-(2-hydroxyethyl)imidazo[2,1-b][1,3]benzothiazole-3-carboxamide], the inhibition at 1 µM is 60 to 80%.
On the same count and under the same terms, with `CC(C)(C)c1cc(NC(=O)Nc2ccc(Oc3ccc4c(c3)sc3ncc(C(=O)O)n34)cc2)n(-c2ccc(O)c(Cl)c2)n1` [Compound 8, 7-[4-({[3-tert-butyl-1-(3-chloro-4-hydroxyphenyl)-1H-pyrazol-5-yl]carbamoyl}amino)phenoxy]imidazo[2,1-b][1,3]benzothiazole-3-carboxylic acid] the figure was 80 to 100%; with `CC(C)(C)c1cc(NC(=O)Nc2ccc(Sc3ccc4c(c3)sc3ncc(C(=O)O)n34)cc2)n(-c2ccc(O)cc2)n1` [Compound 9, 7-{[4-({[3-tert-butyl-1-(4-hydroxyphenyl)-1H-pyrazol-5-yl]carbamoyl}amino)phenyl]sulfanyl}imidazo[2,1-b][1,3]benzothiazole-3-carboxylic acid], 80 to 100%.
Same read-out and setting: the result for `COc1ccc(-n2nc(C(C)(C)C)cc2NC(=O)Nc2ccc(Sc3ccc4c(c3)sc3ncc(C(=O)O)n34)cc2)cc1` [Compound 10, 7-{[4-({[3-tert-butyl-1-(4-methoxyphenyl)-1H-pyrazol-5-yl]carbamoyl}amino)phenyl]sulfanyl}imidazo[2,1-b][1,3]benzothiazole-3-carboxylic acid] reads 80 to 100%; that for `CCOC(=O)c1cnc2sc3cc(Oc4ccccc4CNC(=O)Nc4cc(C(C)(C)C)nn4-c4ccc(OC)cc4)ccc3n12` [Compound 12, ethyl 7-{2-[({[3-tert-butyl-1-(4-methoxyphenyl)-1H-pyrazol-5-yl]carbamoyl}amino)methyl]phenoxy}imidazo[2,1-b][1,3]benzothiazole-3-carboxylate], 80 to 100%.
Turning to `CC(C)(C)c1cc(NC(=O)NCc2ccccc2Oc2ccc3c(c2)sc2ncc(C(=O)O)n23)n(-c2ccc(O)cc2)n1` [Compound 13, 7-{2-[({[3-tert-butyl-1-(4-hydroxyphenyl)-1H-pyrazol-5-yl]carbamoyl}amino)methyl]phenoxy}imidazo[2,1-b][1,3]benzothiazole-3-carboxylic acid], the inhibition at 1 µM is 80 to 100%.
In the case of `CC(C)(C)c1cc(NC(=O)NCc2ccccc2Oc2ccc3c(c2)sc2ncc(C(=O)NCCO)n23)n(-c2ccc(O)cc2)n1` [Compound 14, 7-{2-[({[3-tert-butyl-1-(4-hydroxyphenyl)-1H-pyrazol-5-yl]carbamoyl}amino)methyl]phenoxy}-N-(2-hydroxyethyl)imidazo[2,1-b][1,3]benzothiazole-3-carboxamide], the inhibition at 1 µM is 80 to 100%.
Same read-out and setting: the result for `COc1ccc(-n2nc(C(C)(C)C)cc2NC(=O)Nc2ccc(Oc3ccc4c(c3)sc3ncc(CO)n34)cc2)cc1` [Compound 15, 1-[3-tert-butyl-1-(4-methoxyphenyl)-1H-pyrazol-5-yl]-3-(4-{[3-(hydroxymethyl)imidazo[2,1-b][1,3]benzothiazol-7-yl]oxy}phenyl)urea] reads 60 to 80%; that for `CC(C)(C)c1cc(NC(=O)NCc2ccccc2Oc2ccc3c(c2)sc2ncc(CO)n23)n(-c2ccc(O)cc2)n1` [Compound 16, 1-[3-tert-butyl-1-(4-hydroxyphenyl)-1H-pyrazol-5-yl]-3-(2-{[3-(hydroxymethyl)imidazo[2,1-b][1,3]benzothiazol-7-yl]oxy}benzyl)urea], 80 to 100%.
For the molecule `CCOC(=O)c1cnc2sc3cc(Oc4ccccc4CNC(=O)Nc4cc(C(C)(C)C)nn4-c4ccc(O)cc4)ccc3n12` [Compound 17, Ethyl 7-{2-[({[3-tert-butyl-1-(4-hydroxyphenyl)-1H-pyrazol-5-yl]carbamoyl}amino)methyl]phenoxy}imidazo[2,1-b][1,3]benzothiazole-3-carboxylate], the inhibition at 1 µM was 80 to 100%.
`CC(C)(C)c1cc(NC(=O)Nc2ccc(Sc3ccc4c(c3)sc3ncc(CO)n34)cc2)n(-c2ccc(O)cc2)n1` [Compound 18, 1-[3-tert-butyl-1-(4-hydroxyphenyl)-1H-pyrazol-5-yl]-3-(4-{[3-(hydroxymethyl)imidazo[2,1-b][1,3]benzothiazol-7-yl]sulfanyl}phenyl)urea]: the inhibition at 1 µM was 40 to 60%.
Take `CC(C)(C)c1cc(NC(=O)NCc2ccccc2Oc2ccc3c(c2)sc2ncc(C(=O)O)n23)n(-c2ccc(O)c(Cl)c2)n1` [Compound 19, 7-{2-[({[3-tert-butyl-1-(3-chloro-4-hydroxyphenyl)-1H-pyrazol-5-yl]carbamoyl}amino)methyl]phenoxy}imidazo[2,1-b][1,3]benzothiazole-3-carboxylic acid]: the inhibition at 1 µM was in the range of 80 to 100%.
On the same count and under the same terms, the result for `CC(C)(C)c1cc(NC(=O)NCc2ccccc2Oc2ccc3c(c2)sc2ncc(C(=O)NCCO)n23)n(-c2ccc(O)c(Cl)c2)n1` [Compound 20, 7-{2-[({[3-tert-butyl-1-(3-chloro-4-hydroxyphenyl)-1H-pyrazol-5-yl]carbamoyl}amino)methyl]phenoxy}-N-(2-hydroxyethyl)imidazo[2,1-b][1,3]benzothiazole-3-carboxamide] reads 80 to 100%.
Turning to `CC(C)(C)c1cc(NC(=O)NCc2ccccc2Oc2ccc3c(c2)sc2ncc(C(=O)NC(CO)CO)n23)n(-c2ccc(O)c(Cl)c2)n1` [Compound 21, 7-{2-[({[3-tert-butyl-1-(3-chloro-4-hydroxyphenyl)-1H-pyrazol-5-yl]carbamoyl}amino)methyl]phenoxy}-N-(1,3-dihydroxypropan-2-yl)imidazo[2,1-b][1,3]benzothiazole-3-carboxamide], the inhibition at 1 µM was 80 to 100%.
As for `CC(C)(C)c1cc(NC(=O)NCc2ccccc2Oc2ccc3c(c2)sc2ncc(CSCCO)n23)n(-c2ccc(O)c(Cl)c2)n1` [Compound 23, 1-[3-tert-butyl-1-(3-chloro-4-hydroxyphenyl)-1H-pyrazol-5-yl]-3-{2-[(3-{[(2-hydroxyethyl)sulfanyl]methyl}imidazo[2,1-b][1,3]benzothiazol-7-yl)oxy]benzyl}urea], the inhibition at 1 µM was in the range of 80 to 100%.

A word on the inhibition: it is the change of the read-out against control, counted positive when it falls.
